The experiment concerns the target NDM-1 (Klebsiella pneumoniae, UniProt C7C422). In words: Hydrolysis rates of meropenem by native NDM-1 and Bi-bound NDM-1. Also noted: unit not given here. In kind it is biochemical. The settings on record: MER hydrolysis by Bi-bound NDM-1.

Sequence of NDM-1 (C7C422 whole entry, looked up): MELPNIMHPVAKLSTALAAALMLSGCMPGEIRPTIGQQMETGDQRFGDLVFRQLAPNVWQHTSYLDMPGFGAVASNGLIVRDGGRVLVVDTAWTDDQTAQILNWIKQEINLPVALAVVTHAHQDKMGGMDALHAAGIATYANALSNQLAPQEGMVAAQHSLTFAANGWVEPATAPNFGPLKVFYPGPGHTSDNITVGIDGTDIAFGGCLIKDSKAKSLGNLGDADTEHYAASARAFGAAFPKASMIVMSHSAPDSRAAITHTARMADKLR

Consider `O=C([O-])CC([O-])(CC(=O)[O-])C(=O)[O-].O=C([O-])CC([O-])(CC(=O)[O-])C(=O)[O-].[Bi+3].[Bi+3].[K+]` [Complex 10, colloidal bismuth subcitrate], for which the Vmax is on record as 0.26 ± 0.01.

For the origin of these results see patent US10624871B2, “Bismuth(III) compounds and methods thereof” (priority 2016, dated 2020).
